# Test results reported in patent US20030187076A1, “Non-steroidal analogs of 2-methoxyestradiol” (priority 2002, published 2003).
# Assays:
# [1] = tested on: chick embryo chorioallantoic membrane; experiment: chick embryo chorioallantoic membrane (CAM) assay; format: in vivo; conditions: 100 μg methylcellulose disk, after 48 hours
# From the text: Anti-proliferative activity can be evaluated in situ by testing the ability of the new non-steroidal estradiol derivatives to inhibit the proliferation of new blood vessel cells (angiogenesis). A suitable assay is the chick embryo chorioallantoic membrane (CAM) assay described by Crum et al. Science 230:1375 (1985). See also, U.S. Pat. No. 5,001,116, hereby incorporated by reference, which describes the CAM assay. Briefly, fertilized chick embryos are removed from their shell on day 3 or 4, and a methylcellulose disc containing the drug is implanted on the chorioallantoic membrane. The embryos are examined 48 hours later and, if a clear avascular zone appears around the methylcellulose disc, the diameter of that zone is measured.
# MCF-7 cell = experiment: estrogen dependent MCF-7 cell proliferation; format: cell-based; conditions: over a wide range of concentrations
# From the text: 2-Methoxyestradiol is an endogenous, steroidal metabolite of estradiol (E2) that has potent anti-proliferative activity and induces apoptosis in a wide variety of tumor and non-tumor cell lines. […] What is needed is a series of compounds that constitute analogs of 2-methoxyestradiol which are non-steroidal in structure and which will have similar biological properties to 2-methoxyestradiol and that can be used in similar applications.
# [2] = tested on: vascular endothelial cell; conditions: endothelial versus tumor cell proliferation; cited from earlier work
SMILES,inhibition of cell mitosis and growth of new blood vessels [1],estrogenic activity (MCF-7 cell),"half-maximal inhibition of endothelial cell proliferation, concentration lower than for tumor cell proliferation [2] [logs]"
COc1cc2c(cc1O)CC[C@@H]1[C@@H]2CC[C@]2(C)[C@@H](O)CC[C@@H]12 [2-methoxyestradiol],inhibit cell mitosis and the growth of new blood vessels,not estrogenic,–
CO[C@@H]1[C@H](OC(=O)NC(=O)CCl)CC[C@]2(CO2)[C@H]1[C@@]1(C)O[C@@H]1CC=C(C)C [AGM-1470],–,–,4
